# How the values were obtained:
# Assay type in all cases: biochemical
# [1] = target: EGFRΔ19del/T790M/C797S (Homo sapiens, UniProt P00533, T790M/C797S, form not given); assay: EGFR Δ19del/T790M/C797S kinase test (mobility variation analysis, Caliper EZ Reader); conditions: kinase enzymatic activity, Table 1
# Experimental: (§1) Mobility variation analysis was performed to determine the affinity of the compound for EGFRΔ19del/T790M/C797S, EGFR WT and IGF1R. The enzymatic reaction scheme is as follows:
# (§2) 1. Prepare 1*kinase buffer as follows.
# (§3) 3. […] Prepare 2.5-fold final concentration of kinase solution with 1×Kinase buffer.
# (§4) 4. Add 10 μL of 2.5-fold final concentration of kinase solution to the compound well and the positive control well; add 10 μL of 1×Kinase buffer to the negative control well.
# (§5) 5. Centrifuge at 1000 rpm for 30 s, shake the reaction plate for well mixing, and then incubate at room temperature for 10 minutes.
# (§6) 6. Prepare a mixture of ATP and Kinase substrate at 5/3-fold final concentration with 1×Kinase buffer.
# (§7) 8. Centrifuge the 384-well plate at 1000 rpm for 30 s, shake it well and then incubate it at room temperature for corresponding time.
# (§8) 9. Add 30 μL of stop detection solution to stop the kinase reaction, centrifuge at 1000 rpm for 30 s, and shake it well.
# (§9) 10. Read conversion rate with Caliper EZ Reader.
# (§10) % Inhibition=((Conversion%_max−Conversion%_sample)/(Conversion%_max−Conversion%_min))*100
# (§11) Wherein: Conversion%_sample is the sample conversion rate reading; Conversion%_min: Mean value of negative control wells, representing the conversion rate reading of wells without enzymatic activity; Conversion%_max: Mean value of positive control wells, representing the conversion rate reading of wells without compound inhibition.
# (§12) The dose-effect curve was fitted with concentration log value as X-axis and percentage inhibition rate as Y-axis. GraphPad Prism 5 analysis software was used for fitting Log (inhibitor) vs. response—Variable slope with the dose-effect curve to obtain IC50 value of enzymatic activity for each compound.
# (§13) The calculation formula is as Y-Bottom+(Top-Bottom)/(1+10^((Log IC50−X)*HillSlope)).
# [2] = target: EGFR WT (Homo sapiens, UniProt P00533); assay: EGFR WT kinase test (mobility variation analysis, Caliper EZ Reader); conditions: kinase enzymatic activity, Table 1
# Experimental: as §1, §2, §3, §4, §5, §6, §7, §8, §9, §10, §11, §12, §13
# [3] = target: IGF1R (Homo sapiens, UniProt P08069); assay: IGF1R kinase test (mobility variation analysis, Caliper EZ Reader); conditions: kinase enzymatic activity, Table 1; read-out: EGFR IGF1R IC50
# Experimental: as §1, §2
# 2. Preparation of compound concentration gradient: The test compound was tested with an initial concentration of 3000 nM (300 nM for some triple mutations and 100 nM for others), diluted in a 384 source plate (96-well plate for comparative compound 1 and compounds 1-38) to a 100% DMSO solution with 100-fold final concentration, and the compound is 3-fold diluted with Precision to 10 concentrations. A dispenser Echo 550 was used to transfer 250 nL 100-fold final concentration of the compound to the target plate OptiPlate-384F.
# 3. Prepare 2.5-fold final concentration (5-fold for comparative compound 1 and compounds 1-38) of kinase solution with 1×Kinase buffer. Following steps should also be carried out for comparative compound 1 and compounds 1-38: Add each prepared intermediate dilution compounds to the compound wells of 384-well plate respectively, and test the repeated wells of each concentration; add 5% DMSO of 5 plates into the negative control well and the positive control well respectively. Prepare 2.5-fold final concentration of kinase solution with 1×Kinase buffer.
# as §4, §5, §6
# 7. Add 15 μL mixture of 5/3-fold (2.5-fold for comparative compound 1 and compounds 1-38) final concentration of ATP and substrate to start reaction.
# as §7, §8, §9, §10, §11, §12, §13
# IGF1R, sequence (P08069 31-1367, species assumed): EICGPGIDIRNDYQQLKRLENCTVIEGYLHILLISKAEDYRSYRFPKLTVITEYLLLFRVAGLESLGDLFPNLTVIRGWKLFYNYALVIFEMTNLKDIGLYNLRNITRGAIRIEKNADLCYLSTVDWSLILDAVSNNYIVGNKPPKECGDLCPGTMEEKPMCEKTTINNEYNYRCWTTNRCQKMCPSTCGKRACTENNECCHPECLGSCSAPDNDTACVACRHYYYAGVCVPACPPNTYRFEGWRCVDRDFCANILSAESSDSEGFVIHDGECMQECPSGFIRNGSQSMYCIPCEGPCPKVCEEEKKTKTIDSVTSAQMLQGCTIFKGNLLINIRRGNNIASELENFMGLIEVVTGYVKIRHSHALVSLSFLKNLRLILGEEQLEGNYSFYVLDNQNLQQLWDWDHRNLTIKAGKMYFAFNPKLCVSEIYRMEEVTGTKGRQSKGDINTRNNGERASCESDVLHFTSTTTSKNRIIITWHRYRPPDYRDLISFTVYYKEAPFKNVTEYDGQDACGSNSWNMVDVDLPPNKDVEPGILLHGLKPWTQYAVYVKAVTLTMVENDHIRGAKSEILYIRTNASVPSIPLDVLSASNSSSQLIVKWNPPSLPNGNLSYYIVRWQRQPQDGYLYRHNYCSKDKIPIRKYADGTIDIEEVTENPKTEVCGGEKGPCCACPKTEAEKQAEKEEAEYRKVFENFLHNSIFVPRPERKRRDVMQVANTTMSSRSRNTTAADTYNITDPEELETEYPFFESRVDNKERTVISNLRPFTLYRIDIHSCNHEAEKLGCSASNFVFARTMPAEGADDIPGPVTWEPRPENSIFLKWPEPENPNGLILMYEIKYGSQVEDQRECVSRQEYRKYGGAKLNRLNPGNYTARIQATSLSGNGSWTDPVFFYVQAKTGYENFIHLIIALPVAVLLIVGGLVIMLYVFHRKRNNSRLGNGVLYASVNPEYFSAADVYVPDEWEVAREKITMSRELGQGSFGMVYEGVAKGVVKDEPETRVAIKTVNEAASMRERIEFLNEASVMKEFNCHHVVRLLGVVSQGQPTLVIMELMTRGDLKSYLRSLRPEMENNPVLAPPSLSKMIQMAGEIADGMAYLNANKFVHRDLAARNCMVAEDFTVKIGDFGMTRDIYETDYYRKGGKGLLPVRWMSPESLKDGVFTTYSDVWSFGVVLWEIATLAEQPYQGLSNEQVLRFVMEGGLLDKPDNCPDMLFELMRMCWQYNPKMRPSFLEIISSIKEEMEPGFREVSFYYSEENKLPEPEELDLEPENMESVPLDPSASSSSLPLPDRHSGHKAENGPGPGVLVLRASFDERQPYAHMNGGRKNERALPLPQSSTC
Compound,IC50 [1],IC50 [2],IC50 [3]
CCc1cc(Nc2ncc(Br)c(Nc3ccc(-c4cn(C)c5cccnc45)cc3P(C)(C)=O)n2)c(OC)cc1N1CCC(N2CCN(C)CC2)CC1 [Compound 42],1.24 nM,86.2 nM,1170 nM
"CCc1cc(Nc2ncc(Br)c(Nc3ccc(-c4ncnn4C)cc3P(C)(C)=O)n2)c(OC)cc1N1CCC(N2CCN(C)CC2)CC1 [Compound 62, (2-((5-Bromo-2-((5-ethyl-2-methoxy-4-(4-(4-methylpiperazin-1-yl)piperidin-1-yl)phenyl)amino]pyrimidin-4-yl)amino)-5-(1-methyl-1H-1,2,4-triazol-5-yl)phenyl)dimethylphosphine oxide]",0.8 nM,216 nM,992 nM
"CCc1cc(Nc2ncc(Br)c(Nc3ccc(-n4cccn4)cc3P(C)(C)=O)n2)c(OC)cc1N1CCC(N2CCN(C)CC2)CC1 [Compound 49, (2-((5-Bromo-2-((5-ethyl-2-methoxy-4-(4-(4-methylpiperazin-1-yl)piperidin-1-yl)phenyl)amino)pyrimidin-4-yl)amino)-5-(1H-pyrazol-1-yl)phenyl)dimethylphosphine oxide]",4.1 nM,416 nM,2780 nM
CCc1cc(Nc2ncc(Br)c(Nc3ccc(-c4cccc(N(C)C)n4)cc3P(C)(C)=O)n2)c(OC)cc1N1CCC(N2CCN(C)CC2)CC1 [Compound 71],1.3 nM,55.1 nM,714 nM
(2-((5-Chloro-2-((5-ethyl-2-methoxy-4-(4-(4-methylpiperazin-1-yl)piperidin-1-yl)phenyl)amino)pyrimidin-4-yl)amino)-5-(3-ethoxy-5-methylisoxazol-4-yl)phenyl)dimethylphosphine oxide [Compound K-061],1.6 nM,44 nM,886 nM
"CCc1cc(Nc2ncc(Cl)c(Nc3ccc(-c4cccc5ocnc45)cc3P(C)(C)=O)n2)c(OC)cc1N1CCC(N2CCN(C)CC2)CC1 [Compound K-052, (5-(Benzo[d]oxazol-4-yl)-2-((5-chloro-2-((5-ethyl-2-methoxy-4-(4-(4-methylpiperazin-1-yl)piperidin-1-yl)phenyl)amino)pyrimidin-4-yl)amino)phenyl)dimethylphosphine oxide]",1.6 nM,44 nM,886 nM
"CCc1cc(Nc2ncc(Cl)c(Nc3ccc(-c4cn[nH]c4)cc3P(C)(C)=O)n2)c(OC)cc1N1CCC(N2CCN(C)CC2)CC1 [Compound 48, (2-((5-Chloro-2-((5-ethyl-2-methoxy-4-(4-(4-methylpiperazin-1-yl)piperidin-1-yl)phenyl)amino)pyrimidin-4-yl)amino)-5-(1H-pyrazol-4-yl)phenyl)dimethylphosphine oxide]",0.3 nM,–,112 nM
CCc1cc(Nc2ncc(Br)c(Nc3ccc(-c4c(C)cnn4C)cc3P(C)(C)=O)n2)c(OC)cc1N1CCC(N2CCN(C)CC2)CC1 [Compound 54],0.6 nM,42.2 nM,624 nM
"CCc1cc(Nc2ncc(Cl)c(Nc3ccc(-c4cnccc4OC)cc3P(C)(C)=O)n2)c(OC)cc1N1CCC(N2CCN(C)CC2)CC1 [Compound 53, (2-((5-Chloro-2-((5-ethyl-2-methoxy-4-(4-(4-methylpiperazin-1-yl)piperidin-1-yl)phenyl)amino)pyrimidin-4-yl)amino)-5-(4-methoxypyridin-3-yl)phenyl)dimethylphosphine oxide]",0.6 nM,64 nM,1100 nM
"CCc1cc(Nc2ncc(Br)c(Nc3ccc(-c4cnn(C(F)F)n4)cc3P(C)(C)=O)n2)c(OC)cc1N1CCC(N2CCN(C)CC2)CC1 [Compound K-106, (2-((5-Bromo-2-((5-ethyl-2-methoxy-4-(4-(4-methylpiperazin-1-yl)piperidin-1-yl)phenyl)amino)pyrimidin-4-yl)amino)-5-(2-(difluoromethyl)-2H-1,2,3-triazol-4-yl)phenyl)dimethylphosphine oxide]",0.5 nM,17 nM,56 nM

# Now from value to compound:
IC50 [1],IC50 [2],IC50 [3],Compound
1.5 nM,58.9 nM,748 nM,"CCc1cc(Nc2ncc(Cl)c(Nc3ccc(-c4cnn5c4CC(C)(C)C5)cc3P(C)(C)=O)n2)c(OC)cc1N1CCC(N2CCN(C)CC2)CC1 [Compound 41, (2-((5-Chloro-2-((5-ethyl-2-methoxy-4-(4-(4-methylpiperazin-1-yl)piperidin-1-yl)phenyl)amino)pyrimidin-4-yl)amino)-5-(5,5-dimethyl-5,6-dihydro-tetrahydro-pyrrolo[1,2-b]pyrazol-3-)phenyl)dimethylphosphine oxide]"
0.8 nM,83.6 nM,427 nM,"CCc1cc(Nc2ncc(Cl)c(Nc3ccc(-c4ccc[nH]c4=O)cc3P(C)(C)=O)n2)c(OC)cc1N1CCC(N2CCN(C)CC2)CC1 [Compound K-092, 3-(4-((5-Chloro-2-((5-ethyl-2-methoxy-4-(4-(4-methylpiperazin-1-yl)piperidin-1-yl)phenyl)amino)pyrimidin-4-yl)amino)-3-(dimethylphosphoryl)phenyl)pyridin-2(1H)-one]"
0.6 nM,47 nM,418 nM,CCc1cc(Nc2ncc(Br)c(Nc3ccc(-c4ncsc4C)cc3P(C)(C)=O)n2)c(OC)cc1N1CCC(N2CCN(C)CC2)CC1 [Compound 60]
0.9 nM,84.7 nM,663 nM,"CCc1cc(Nc2ncc(Br)c(Nc3ccc(-c4cn(C)cn4)cc3P(C)(C)=O)n2)c(OC)cc1N1CCC(N2CCN(C)CC2)CC1 [Compound 68, (2-((5-Bromo-2-((5-ethyl-2-methoxy-4-(4-(4-methylpiperazin-1-yl)piperidin-1-yl)phenyl)amino)pyrimidin-4-yl)amino)-5-(1-methyl-1H-imidazol-4-yl)phenyl)dimethylphosphine oxide]"
0.8 nM,38.8 nM,279 nM,"CCn1cc(-c2cc(Nc3ncc(Br)c(Nc4ccc(-c5cccc6cc[nH]c56)cc4P(C)(C)=O)n3)c(OC)cc2N2CCC(N3CCN(C)CC3)CC2)cn1 [Compound K-091, (2-((5-Bromo-2-((5-(1-ethyl-1H-pyrazol-4-yl)-2-methoxy-4-(4-(4-methylpiperazin-1-yl)piperidin-1-yl)phenyl)amino)pyrimidin-4-yl)amino)-5-(1H-indol-7-yl)phenyl)dimethylphosphine oxide]"
0.4 nM,18.3 nM,138 nM,"CCc1cc(Nc2ncc(Br)c(Nc3ccc(-c4ccn[nH]4)cc3P(C)(C)=O)n2)c(OC)cc1N1CCC(N2CCN(C)CC2)CC1 [Compound 39, (2-((5-Bromo-2-((5-ethyl-2-methoxy-4-(4-(4-methylpiperazin-1-yl)piperidin-1-yl)phenyl)amino)pyrimidin-4-yl)amino)-5-(1H-pyrazol-5-yl)phenyl)dimethylphosphine oxide]"
0.3 nM,–,–,"CCn1cc(-c2cc(Nc3ncc(Br)c(Nc4ccc(-c5nn(C)c6ncccc56)cc4P(C)(C)=O)n3)c(OC)cc2N2CCC(N3CCN(C)CC3)CC2)cn1 [Compound K-102, (2-((5-Bromo-2-((5-(1-ethyl-1H-pyrazol-4-yl)-2-methoxy-4-(4-(4-methylpiperazin-1-yl)piperidin-1-yl)phenyl)amino)pyrimidin-4-yl)amino)-5-(1-methyl-1H-pyrazolo[3,4-b]pyridin-3-yl)phenyl)dimethylphosphine oxide]"
1.9 nM,203 nM,1910 nM,CCc1cc(Nc2ncc(Br)c(Nc3ccc(-c4cccc5cc[nH]c45)cc3P(C)(C)=O)n2)c(OC)cc1N1CCC(N2CCN(C)CC2)CC1 [Compound 52]
3.7 nM,65 nM,274 nM,"CCOc1noc(C)c1-c1ccc(Nc2nc(Nc3cc(CC)c(N4CCC(N5CCN(C)CC5)CC4)cc3OC)ncc2Cl)c(P(C)(C)=O)c1 [Compound 58, (2-((5-Chloro-2-((5-ethyl-2-methoxy-4-(4-(4-methylpiperazin-1-yl)piperidin-1-yl)phenyl)amino)pyrimidin-4-yl)amino)-5-(3-ethoxy-5-methylisoxazol-4-yl)phenyl)dimethylphosphine oxide]"
2.5 nM,82.5 nM,748 nM,CCc1cc(Nc2ncc(Br)c(Nc3ccc(-c4cc5cc(C#N)ccc5[nH]4)cc3P(C)(C)=O)n2)c(OC)cc1N1CCC(N2CCN(C)CC2)CC1 [Compound 43]

# From patent US20220402948A1, “EGFR INHIBITOR, COMPOSITION AND PREPARATION METHOD THEREFOR” (BETTA PHARMACEUTICALS CO., LTD., priority 2019, published 2022)
